Here are results for four compounds from patent US10285982B2, “3-(1H-pyrrolo[2,3-B]pyridin-2-yl)-1H-pyrazolo[3,4-C]pyridines and therapeutic uses thereof” (Samumed, LLC, priority 2015, dated 2019).

Common to all, as to assay type: cell-based
For experiment [1], the system named is primary human fibroblasts derived from IPF patients (LL29 cells) treated with TGF-β1. In words: Inhibition of fibrotic process, αSMA staining in TGF-β1 treated LL29 fibroblasts. The conditions noted are these: Fibroblast, 96 h, % αSMA positive LL29 cells, TGF-β1 20 ng/mL, 4 days. The text has this:
Representative compounds were screened using primary human fibroblasts (derived from IPF patients) treated with TGF-β1 to determine their ability to inhibit the fibrotic process.
Primary human fibroblasts derived from IPF patients (LL29 cells) [^1Xiaoqiu Liu, et. al., “Fibrotic Lung Fibroblasts Show Blunted Inhibition by cAMP Due to Deficient cAMP Response Element-Binding Protein Phosphorylation”, Journal of Pharmacology and Experimental Therapeutics (2005), 315(2), 678-687; ^2Watts, K. L., et. al., “RhoA signaling modulates cyclin D1 expression in human lung fibroblasts; implications for idiopathic pulmonary fibrosis”, Respiratory Research (2006), 7(1), 88] were obtained from American Type Culture Collection (ATCC) and expanded in F12 medium supplemented with 15% Fetal Bovine Serum and Penicillin/Streptomycin.
Each compound was dissolved in DMSO as a 10 mM stock and used to prepare compound source plates. Serial dilution (1:2, 11-point dose-response curves from 10 μM to 1.87 nM) and compound transfer was performed using the ECHO 550 (Labcyte, Sunnyvale, Calif.) into 384-well clear bottom assay plates (Greiner Bio-One) with appropriate DMSO backfill for a final DMSO concentration of 0.1%. LL29 cells are plated at 1,500 cells/well in 80 μL/well F12 medium supplemented with 1% Fetal Bovine Serum. One hour after addition of the cells, TGF-β1 (Peprotech; 20 ng/mL) was added to the plates to induce fibrosis (ref. 1 and 2 above). Wells treated with TGF-β1 and containing DMSO were used as controls. Cells were incubated at 37° C. and 5% CO2 for 4 days. Following incubation for 4 days, SYTOX green nucleic acid stain (Life Technologies [Thermo Fisher Scientific]) was added to the wells at a final concentration of 1 μM and incubated at room temperature for 30 min. Cells were then fixed using 4% formaldehyde (Electron Microscopy Sciences), washed 3 times with PBS followed by blocking and permeabilization using 3% Bovine Serum Albumin (BSA; Sigma) and 0.3% Triton X-100 (Sigma) in PBS. Cells were then stained with antibody specific to α-smooth muscle actin (αSMA; Abcam) (ref. 1 and 2 above) in 3% Bovine Serum Albumin (BSA; Sigma) and 0.3% Triton X-100 (Sigma) in PBS, and incubated overnight at 4° C. Cells were then washed 3 times with PBS, followed by incubation with Alexa Flor-647 conjugated secondary antibody (Life Technologies [Thermo Fisher Scientific]) and DAPI at room temperature for 1 hour. Cells were then washed 3 times with PBS and plates were sealed for imaging. αSMA staining was imaged by excitation at 630 nm and emission at 665 nm and quantified using the Compartmental Analysis program on the CellInsight CX5 (Thermo Scientific). Dead or apoptotic cells were excluded from analysis based on positive SYTOX green staining. % of total cells positive for αSMA were counted in each well and normalized to the average of 11 wells treated with TGF-β1 on the same plate using Dotmatics' Studies Software. The normalized averages (fold change over untreated) of 3 replicate wells for each compound concentration were used to create dose-responses curves and EC50 values were calculated using non-linear regression curve fit in the Dotmatics' Studies Software. For EC50 of >10 μM, the percent inhibition at 10 μM is provided.

For the next experiment, the system named is SW480 colon cancer cells. Put plainly: Cell viability assay (CellTiter-Blue). The conditions noted are these: Homo sapiens, 96 h, four days. The protocol:
Representative compounds were screened using the following assay procedure to assess the effect on cell viability as described below.
Each compound was dissolved in DMSO as a 10 mM stock and used to prepare compound source plates. Serial dilution (1:3, 8-point dose-response curves from 10 μM to 0.0045 μM) and compound transfer was performed using the ECHO 550 (Labcyte, Sunnyvale, Calif.) into 96-well clear bottom, black-walled plates (Corning-Costar).
Approximately 2×10^3 SW480 colon cancer cells were seeded into each well and allowed to incubate in the presence or absence of compound for four days at 37° C./5% CO2. Eight replicates of DMSO-treated cells served as controls and cells treated with compound were performed in duplicate.
After incubation, 20 μL of CellTiter-Blue (Promega) was added to each well allowed to incubate for approximately 3 hours. This reagent was a buffered solution which contains resazurin, metabolically active cells were able to reduce rezarurin (blue) into resorufin (pink) which was highly fluorescent. This measured fluorescence was used as a readout for cell viability.
After incubation, the plates were read at Ex 560 nm Em 590 nm (Cytation 3, BioTek). Dose-response curves were generated and EC50 concentration values were calculated using non-linear regression curve fit in the GraphPad Prism (San Diego, Calif.) or Dotmatics' Studies Software (Bishops Stortford, UK). For EC50 of >10 μM, the percent inhibition at 10 μM is provided.
On the technique in general: Alamar Blue is a resazurin reagent that responds to reducing activity.

A further experiment has as its system IL-6 (THP-1 cells). Put plainly: IL-6 inhibition in LPS-stimulated THP-1 cells (HTRF). The following applies: Homo sapiens; IL-6 in THP-1 cells, LPS 500 ng/mL, 22 hours. The protocol:
Human monocyte cell line (THP-1 cells; Catalog # TIB-202, ATCC, Manassas, Va.) were cultured in Roswell Park Memorial Institute (RPMI) 1640 Medium (Catalog #21870-100, Buffalo, N.Y.) with 1% L-glutamine, 1% HEPES, 1% Sodium Pyruvate, 2% Sodium Bicarbonate supplemented with 100 units/mL penicillin, 50 μg/mL streptomycin, 2-mercaptoethanol (0.05 mM) [basal medium] and 10% fetal bovine serum (Catalog #16140089, Life Technologies, Carlsbad, Calif.) at 37° C. and 5% CO2.
THP-1 cells were cultured in basal media with 1% FBS for 24 hours before the start of the assay. Each compound was dissolved in DMSO as a 10 mM stock and used to prepare compound source plates. Serial dilution (1:3, 10-point dose-response curves starting from 10 μM) and compound transfer was performed using the ECHO 550 (Labcyte, Sunnyvale, Calif.) into 384-well white low volume assay plates (Greiner Bio-One) with appropriate DMSO backfill for a final DMSO concentration of 0.1%. THP-1 cells were plated at 5000 cells/well in the 384-well plates and incubated at 37° C. for 2 h. 500 ng/mL of LPS was added after 2 hours and cells were incubated for another 22 hours at 37° C. Plates were spun in a centrifuge for 1 minute at […] and a mixture of anti-IL6 XL665, and anti-IL6 Cryptate diluted in reconstitution buffer (Cisbio Inc.) was added to each well. Following incubation for 3 hrs at room temperature, Homogeneous Time-Resolved Fluorescence (HTRF) was measured using the Envision (Perkin Elmer) at 665 nm and […]. The ratio of fluorescence at 665 nm to 620 nm was used as a readout for IL6 quantification. All samples were processed in duplicate. Readings were normalized to DMSO treated cells and normalized activities were utilized for EC50 calculations using the dose-response log (inhibitor) vs. response-variable slope (four parameters) nonlinear regression feature available in GraphPad Prism 5.0 (or Dotmatics). For EC50 of >10 μM, the percent inhibition at 10 μM is provided.

Experiment [2] relates to Wnt activity (Sp5-Luc reporter, SW480 colon carcinoma cells). Put plainly: Wnt activity screening assay, Sp5-Luc reporter gene in SW480 cells. The following applies: Homo sapiens, overnight incubation. The text has this: The screening assay for Wnt activity is described as follows. Reporter cell lines can be generated by stably transducing cancer cell lines (e.g., colon cancer) or primary cells (e.g., IEC-6 intestinal cells) with a lentiviral construct that includes a Wnt-responsive promoter driving expression of the firefly luciferase gene.
SW480 colon carcinoma cells were transduced with a lentiviral vector expressing luciferase with a human Sp5 promoter consisting of a sequence of eight TCF/LEF binding sites. SW480 cells stably expressing the Sp5-Luc reporter gene and a hygromycin resistance gene were selected by treatment with 150 μg/mL of hygromycin for 7 days. These stably transduced SW480 cells were expanded in cell culture and used for all further screening activities. Each compound was dissolved in DMSO as a 10 mM stock and used to prepare compound source plates. Serial dilution (1:3, 10-point dose-response curves starting from 10 μM) and compound transfer was performed using the ECHO 550 (Labcyte, Sunnyvale, Calif.) into 384-well white solid bottom assay plates (Greiner Bio-One) with appropriate DMSO backfill for a final DMSO concentration of 0.1%. For Sp5-Luc reporter gene assays, the cells were plated at 4,000 cells/well in 384-well plates with medium containing 1% fetal bovine serum and incubated overnight at 37° C. and 5% CO2. Following incubation, 20 μl of BrightGlo luminescence reagent (Promega) was added to each well of the 384-well assay plates. The plates were placed on an orbital shaker for 2 min and then luminescence was quantified using the Envision (Perkin Elmer) plate reader. Readings were normalized to DMSO only treated cells, and normalized activities were utilized for EC50 calculations using the dose-response log (inhibitor) vs. response-variable slope (four parameters) nonlinear regression feature available in GraphPad Prism 5.0 (or Dotmatics). For EC50 of >10 μM, the percent inhibition at 10 μM is provided.
Background: Reporter assays use an easily measured gene product as a stand-in for the process of interest.

Structures are written as SMILES.

For the compound `c1csc(-c2ccnc3[nH]c(-c4n[nH]c5cnc(-c6cncc(CN7CCCCC7)c6)cc45)cc23)c1` [Compound 351, 5-(5-(Piperidin-1-ylmethyl)pyridin-3-yl)-3-(4-(thiophen-2-yl)-1H-pyrrolo [2,3-b]pyridin-2-yl)-1H-pyrazolo[3,4-c]pyridine], the EC50 (as a rule, the concentration that produces a half-maximal response) was determined as 2560 nM in experiment [1], 4100 nM with SW480 colon cancer cells, 182 nM in the experiment with IL-6 (THP-1 cells) and 6900 nM in experiment [2].
The corresponding values for `c1ccc(-c2cc3c(-c4cc5c(-c6cccs6)ccnc5[nH]4)n[nH]c3cn2)nc1` [Compound 364, 5-(Pyridin-2-yl)-3-(4-(thiophen-2-yl)-1H-pyrrolo[2,3-b]pyridin-2-yl)-1H-pyrazolo[3,4-c]pyridine] are 403 nM, 706 nM, 1010 nM and 630 nM.
The corresponding values for `Fc1ccccc1-c1ccnc2[nH]c(-c3n[nH]c4cnc(-c5ccccn5)cc34)cc12` [Compound 84, 3-(4-(2-Fluorophenyl)-1H-pyrrolo[2,3-b]pyridin-2-yl)-5-(pyridin-2-yl)-1H-pyrazolo[3,4-c]pyridine] are 561 nM, 411 nM, 6420 nM and 279 nM.
The like results for `O=C(Nc1cncc(-c2cc3c(-c4cc5c(-c6ccoc6)ccnc5[nH]4)n[nH]c3cn2)c1)C1CC1` [Compound 328, N-(5-(3-(4-(Furan-3-yl)-1H-pyrrolo[2,3-b]pyridin-2-yl)-1H-pyrazolo[3,4-c]pyridin-5-yl)pyridin-3-yl)cyclopropanecarboxamide] were, in that order, 37 nM, 107 nM, 533 nM and 121 nM.
